Laboratory results as given in patent US9603900B2, “Use of PACAP for the treatment of viral infections in aquatic organisms” (Centro de Ingenieria Genetica y Biotecnologia, priority 2010, dated 2017).
Marks after values point to notes of the source that are not given here.

Assays:
PAC-1 receptor = PAC-1 receptor expression (qPCR) in head kidney leukocytes treated with poly I:C; type: cell-based, rainbow trout (O. mykiss); conditions: poly I:C 30 μg/mL, 4, 24 and 48 hours
Method: Juvenile rainbow trout (O. mykiss) was used from 9 to 12 grams and 7 months of age, VHSV and IPNV free. Fish were maintained at 14° C. with water circulation. Food was administered twice a day ad libitum. The virus, VHSV (strain 0771) and IPNV (strain Sp) were propagated in the rainbow trout gonad cell line RTG-2 (Sena and Rio (1975) Infect Immun 11:815-22). Cells were grown in minimal essential medium (MEM, Invitrogen, USA) supplemented with 10% of fetal calf serum (FCS, Invitrogen) containing 100 IU/mL of penicillin and 100 μg/mL of streptomycin. The viruses were inoculated into RTG-2 cells grown in MEM with antibiotics and 2% FCS at 14° C. […] The viral titers were determined in 96-well plates as reported by Reed and Muench (Reed and Muench ([…]) J Hyg 27:280-9). […]
Finally, total RNA was purified from leukocytes cultures using the method described by Chomczynski and Sacchi (Chomczynski and Sacchi (1987) Anal. Biochem. 162:156-9) to evaluate the expression levels of the PAC-1 receptor on leukocytes untreated and treated with Poly I:C or infected with viruses. […] For quantitative PCR reactions (qPCR) was used a mixture of PCR from commercial sources: Power SYBR Green PCR Master Mix (Applied Biosystems). […] The results were expressed as 2^−ΔCt, where ΔCt is equal to the remainder of the gene Ct value minus the assessed value of Ct normalizer gene (EF 1α).

VPAC-1 receptor = VPAC-1 receptor expression (qPCR) in anterior kidney leukocytes treated with poly I:C; type: cell-based, rainbow trout (Oncorhynchus mykiss); conditions: cultured leukocytes, poly I:C, 4, 24 and 48 hours
IFN γ coding gene = experiment: PACAP38 effect on transcription of IFN γ coding gene in leukocytes (qPCR); type: cell-based, rainbow trout (Oncorhynchus mykiss); conditions: 48 hours
Description: (§1) Juvenile rainbow trout (O. mykiss) was used of approximately 50 grams, VHSV and IPNV free. Fish (n=5) were anesthetized with methanesulfonic acid salt (Sigma, USA) and were removed aseptically, first peripheral blood from the tail vein and then the anterior kidney were isolated from peripheral blood leukocytes from anterior kidney and trout from 5 independently, following the method described by Graham and Secombe (Graham and Secombe ([…]) Immunology 65:293-7).
(§2) The peripheral blood of each fish was diluted 4 times in half Leibovitz (L-15, Gibco, UK) supplemented with penicillin 100 IU/mL, streptomycin (100 μg/mL), heparin (10 units/mL) and 2% FCS and placed carefully on a Percoll gradient to 51%. The ring of cells corresponding to leukocytes was removed carefully, washed twice in L-15 containing 0.1% FCS.
(§3) The anterior kidney was passed through a nylon mesh of 100 μm Leibovitz (L-15, Gibco, UK) supplemented with penicillin 100 IU/mL, streptomycin (100 μg/mL), heparin (10 units/mL) and 2% FCS. The resulting cell suspension was diluted 1:4 in the same medium supplemented L-15 and placed carefully on a Percoll gradient to 51%. The ring of cells corresponding to leukocytes was removed carefully, washed twice in L-15 containing 0.1% FCS.
(§4) The cells were suspended in L-15 with 5% FCS at a concentration of 5×10^6 cells per ml and dispensed in 24-well plates at 1 mL per well. The leukocytes were treated with 3 doses of PACAP38 from Clarias gariepinus obtained by chemical synthesis (10^−10 M, 10^−9 M and 10^−8 M) in duplicate and used as negative control untreated leukocytes dispensed in duplicate.
(§5) The levels of Mx, IFN and TLR9 were evaluated 48 hours after treatment. In order to do so, total RNA was purified from leukocyte cultures treated with PACAP by the method described by Chomczynski and Sacchi (Chomczynski and Sacchi (1987) Anal. Biochem. 162:156-9).
(§6) For the synthesis of cDNA it was used a commercial reagent kit uses SuperScript III reverse transcriptase (Invitrogen). Finally, for quantitative PCR reactions (qPCR) was used a mixture of PCR from commercial sources: Power SYBR Green PCR Master Mix (Applied Biosystems). The qPCR results were normalized against a constitutive endogenous constitutive expression gene specifically elongation 1α (EF 1α) and were performed in triplicate. The results were expressed as 2^−ΔCt, where ΔCt is equal to the remainder of the gene Ct value minus the assessed value of Ct normalizer gene EF 1α).

Mx protein coding gene = experiment: PACAP38 effect on transcription of Mx protein coding gene in leukocytes (qPCR); type: cell-based, rainbow trout (Oncorhynchus mykiss); conditions: 48 hours
Description: as §1, §2, §3, §4, §5, §6

TLR9 coding gene = experiment: PACAP38 effect on transcription of TLR9 coding gene in leukocytes (qPCR); type: cell-based, rainbow trout (Oncorhynchus mykiss); conditions: 48 hours
Description: as §1, §2, §3, §4
The levels of Mx, IFN and TLR9 were evaluated 48 hours after treatment. […]
as §6, with “The qPCR results were normalized against a constitutive endogenous constitutive expression gene specifically elongation 1α (EF 1α) and were performed in triplicate.” left out

[1] = test system: IPNV (strain ATCC VR-299); experiment: Rainbow trout experimentally infected with IPNV, treatment by immersion; type: in vivo, rainbow trout (O. mykiss); conditions: for Increment with respect to initial weight / Final Weight: 45 days post-infection; for Final Weight: initial 1.6 ± 0.4 g; for survival: 45 days, untreated infected 20%
Method: An experiment was conducted to evaluate the effect of administration of PACAP and PACAP-ribavirin combination in rainbow trout experimentally infected with IPNV. Eight experimental groups of 50 fish each at a body weight of 1.6±0.4 g were used. The water temperature was kept at 10-12° C. • Group 1: untreated fish not exposed to the virus • Group 2: untreated fish, exposed to the virus • Group 3: Group treated with ribavirin at a dose of 400 μg/L of water, exposed to the virus • Group 4: Group treated with ribavirin at a dose of 800 μg/L of water, exposed to the virus • Group 5: Group treated with PACAP at a dose of 100 μg/L of water, exposed to the virus • Group 6: Group treated with PACAP at a dose of 200 μg/L of water, exposed to the virus. • Group 7: Group treated with the combination 1 (ribavirina 400 μg/L-PACAP 100 μg/L, exposed to the virus.
Group 8: Group treated with the combination 2 (ribavirina 800 μg/L-PACAP 200 μg/L exposed to the virus.
The animals were fed twice a day with an amount equivalent to 3% of the total corporal weight in each tank. […] Fish in Groups 1 and 2 were subjected to the same stress treatment without the antiviral compound or without the PACAP-antiviral combination. The fish in Group 1 received the same procedure with cell culture medium instead of virus. […] Treatments with PACAP or with PACAP-antiviral combination were performed 3 times a week for 20 days. The first treatments were performed 2 h after viral infection. Experimental observations were made during the first 20 days of treatments and 25 days after it concluded. During the experiment (45 days) deaths and abnormal behavior of the fish were monitored.

IPNV [2] = experiment: Oysters experimentally infected with IPNV, viral titer in hepatopancreas; type: in vivo, oysters of the species Pecten maximus; conditions: two weeks after challenge, untreated infected 8.1
Method: Eight experimental groups were performed of 30 adult oysters each one and were kept in 250 L of filtered sea water at 10° C.
Treatments were performed 3 times a week for 20 days. Oysters were challenged by exposure to 25 L of water containing 10^7 TCID50 mL^−1 in tanks of 80 L. After 6 h the water was replaced at a slow flow of 1 L/min and at 12 h the flow was increased to 3 L/min.
Two weeks after challenge hepatopancreas samples were taken and determined the viral titer.

[3] = test system: IPNV (strain ATCC VR-299); experiment: Atlantic salmon experimentally infected with IPNV, treatment by immersion; type: in vivo, Atlantic salmon (Salmo salar); conditions: for Increment / Final Weight: 45 days post-infection; for Final Weight: initial 1.2 ± 0.3 g; for survival: 45 days, untreated infected 30%
Method: An experiment was conducted to evaluate the effect of the administration of PACAP and PACAP-ribavirin combination for salmon (Salmo salar) experimentally infected with IPNV. Eight experimental groups were performed of 50 fish and a size of 1.2±0.3 g each one and were kept in water at 10-12° C.: • Group 1: untreated fish not exposed to the virus • Group 2: untreated fish, exposed to the virus • Group 3: Group treated with ribavirin at a dose of 400 μg/L of water, exposed to the virus • Group 4: Group treated with ribavirin at a dose of 800 μg/L of water, exposed to the virus • Group 5: Group treated with PACAP at a dose of 100 μg/L of water, exposed to the virus • Group 6: Group treated with PACAP at a dose of 200 μg/L, exposed to the virus • Group 7: Group treated with ribavirin 400 μg/L-PACAP 100 μg/L combination, exposed to the virus • Group 8: Group treated with ribavirin 800 μg/L-PACAP 200 μg/L combination, exposed to the virus.
The animals were fed twice a day with an amount equivalent to 3% of the total corporal weight in each tank. […] Treatments were performed 3 times a week for 20 days. Experimental observations were made during this period and 25 days after the last treatments. During the 45 days of the experiment deaths and abnormal behavior of the fish were monitored. Fish in Groups 1 and 2 were subjected to the same stress produced by the treatment without the antiviral compound or the combination of PACAP-antiviral. The fish in Group 1 received the same procedure with cell culture medium instead of the virus.

IHNV = experiment: Rainbow trout experimentally infected with IHNV; type: in vivo, rainbow trout (O. mykiss); conditions: amantadine 400/800 μg/L, PACAP 100/200 μg/L or combinations, doses not told apart; untreated infected 26%
Method: The fish were challenged by immersion with 5.9×10^3 pfu/ml virus in 20 L of water with aeration for 1 hour.

IPNV [4] = conditions: daily baths 0.4 and 0.8 μg/mL for two hours during 20 days; cited from earlier work
[5] = head kidney leukocytes, 10^−9 M
[6] = Groups 3, 5, 7: ribavirin 400 μg/L, PACAP 100 μg/L or combination 1
[7] = Groups 4, 6, 8: ribavirin 800 μg/L, PACAP 200 μg/L or combination 2
[8] = Groups 3, 5, 7: ribavirin 400 μg/L, PACAP 100 μg/L or both
[9] = Groups 4, 6, 8: ribavirin 800 μg/L, PACAP 200 μg/L or both

## poly I:C
PAC-1 receptor
  levels of PAC-1 expression relative to EF1α: over-expressed
VPAC-1 receptor
  levels of VPAC-1 expression relative to EF1α: over-expressed

## PACAP38
IFN γ coding gene; anterior kidney leukocytes, 10^−9 and 10^−8 M
  IFN γ expression levels versus control group: statistically higher than the control group
IFN γ coding gene; anterior kidney leukocytes
  dose giving the best IFN γ expression results: 10^−9 M
IFN γ coding gene; peripheral blood leukocytes, 3 doses (10^−10, 10^−9, 10^−8 M), undetectable in non-treated cultures
  IFN γ expression levels: detectable levels of expression
IFN γ coding gene; peripheral blood leukocytes
  dose giving the highest IFN γ expression level: 10^−9 M
Mx protein coding gene; [5]
  Mx protein expression levels relative to negative control: stimulatory effect
Mx protein coding gene; peripheral blood leukocytes, 10^−8 M
  Mx protein expression levels relative to negative control: did not differ
Mx protein coding gene; peripheral blood leukocytes, 10^−9 M, below levels at 10^−10 M
  Mx protein expression levels relative to negative control: stimulatory effect
Mx protein coding gene; peripheral blood leukocytes, 10^−10 M
  Mx protein expression levels relative to negative control: increase
TLR9 coding gene; [5]
  TLR9 expression levels versus negative control: statistically higher than the negative control
TLR9 coding gene; peripheral blood leukocytes, 10^−10-10^−8 M, undetectable in unstimulated cultures
  TLR9 expression levels: detectable levels
TLR9 coding gene; peripheral blood leukocytes
  dose giving the highest TLR9 expression values: 10^−10 M

## NC(=O)c1ncn([C@@H]2O[C@H](CO)[C@@H](O)[C@H]2O)n1 [ribavirin]
[1]; [6]
  Increment with respect to initial weight: 137%
  Final Weight: 3.8 ± 1.1^c g
  survival: 68%
[1]; [7]
  Increment with respect to initial weight: 131%
  Final Weight: 3.7 ± 1.0^c g
  survival: 70%
[1]; rainbow trout, IPNV, both doses, untreated infected: day 15
  day on which appetite was recovered: 13 days
[1]; rainbow trout, IPNV, treatments 3 times a week for 20 days, both doses, untreated infected: day 6
  day on which signs of disease were detected: 8 days
IPNV [2]; [6]
  IPNV average viral titer in the hepatopancreas: 5.4^b log10TCID50 g^−1
IPNV [2]; [7]
  IPNV average viral titer in the hepatopancreas: 4.3^b log10TCID50 g^−1
[3]; Atlantic salmon, IPNV, both doses, untreated infected: day 6
  day on which early signs of disease were detected: 10 days
[3]; [8]
  Increment: 83%
  Final Weight: 2.2 ± 0.4^c g
[3]; [9]
  Increment: 92%
  Final Weight: 2.3 ± 0.5^c g
[3]; high dose: ribavirin 800 μg/L or PACAP 200 μg/L
  survival: 76%
[3]; low dose: ribavirin 400 μg/L or PACAP 100 μg/L
  survival: 70%

## NC12CC3CC(CC(C3)C1)C2 [amantadine]
IHNV
  survival: 46%

## C#Cc1c(C(N)=O)ncn1[C@@H]1O[C@H](CO)[C@@H](O)[C@H]1O [EICAR, 5-ethynyl-1-β-D-ribofuranosylimidazole-carboxamide]
IPNV [4]
  viral load in liver and spleen (RT-PCR): decrease in viral load
